Each molecule was assayed against human PD-L1 / Human PD-1 (Homo sapiens (Human), UniProt Q9NZQ7) (assay: Enzyme-Linked Immunosorbent Assay (ELISA), PD-1/PD-L1 binding). Conditions: not given.
Procedure: Plates were coated with 1 μg/mL of human PD-L1 (obtained from R&D) in PBS overnight at 4° C. The wells were then blocked with PBS containing 2% BSA in PBS (W/V) with 0.05% TWEEN-20 for 1 hour at 37° C. The plates were washed 3 times with PBS/0.05% TWEEN-20 and the samples were diluted to 1:5 in dilution medium in the ELISA plates. Human PD-1 and biotin 0.3 μg/mL (ACRO Biosystems) were added and incubated for 1 hour at 37° C. then washed 3 times with PBS/0.05% TWEEN-20. A second block was added with PBS containing 2% BSA in PBS (W/V)/0.05% TWEEN-20 for 10 min at 37° C. and was washed 3 times with PBS/0.05% TWEEN-20. Streptavidin-HRP was added for 1 hour at 37° C. then washed 3 times with PBS/0.05% TWEEN-20. TMB substrate was added and reacted for 20 min at 37° C. A stop solution (2 N aqueous H2SO4) was added. The absorbance was read at 450 nm using a micro-plate spectrophotometer.
Compounds in Table 2 and Table 3 were prepared by methods as described in the Examples, and evaluated according to the assay below.

Sequence of human PD-L1 / Human PD-1 (Q9NZQ7 19-239): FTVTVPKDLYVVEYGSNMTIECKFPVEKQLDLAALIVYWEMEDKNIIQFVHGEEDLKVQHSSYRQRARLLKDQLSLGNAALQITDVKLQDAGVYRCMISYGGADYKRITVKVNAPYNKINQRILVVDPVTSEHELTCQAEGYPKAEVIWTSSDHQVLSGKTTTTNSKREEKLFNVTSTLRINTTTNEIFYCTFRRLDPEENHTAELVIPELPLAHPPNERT

SMILES | IC50
N#Cc1cncc(COc2cc(O[C@H]3CCc4c(-c5ccccc5F)cccc43)c(Cl)cc2CN2CCC(F)CC2)c1 [Example 2.094] | 0.1 to 0.5 µM

Same assay, conditions: Table 2; plate-coated human PD-L1, biotinylated human PD-1; read-out: ELISA IC50

SMILES | IC50
CC(C)C[C@H](NCc1cc(Cl)c(O[C@H]2CCc3c(-c4ccccc4F)cccc32)cc1OCc1cncc(C#N)c1)C(=O)O [Example 2.091] | 0.1 to 0.5 µM
CC(C)C[C@H](NCc1cc(Cl)c(O[C@H]2CCc3c(-c4ccccc4F)cccc32)cc1OCc1cncc(C#N)c1)C(=O)O [Example 2.092] | 0.1 to 0.5 µM
N#Cc1cncc(COc2cc(O[C@H]3CCc4c(-c5ccccc5F)cccc43)c(Cl)cc2CN2CCC(F)CC2)c1 [Example 2.093] | 0.5 to 20 µM
OC1CCN(Cc2cc(Cl)c(O[C@H]3CCc4c(-c5ccccc5F)cccc43)cc2OCc2ccc(C(F)(F)F)nc2)CC1 [Example 2.095] | 0.5 to 20 µM
OC1CCN(Cc2cc(Cl)c(O[C@H]3CCc4c(-c5ccccc5F)cccc43)cc2OCc2ccc(C(F)(F)F)nc2)CC1 [Example 2.096] | 0.5 to 20 µM
N#Cc1cncc(COc2cc(O[C@H]3CCc4c(-c5ccccc5F)cccc43)c(Cl)cc2CN2CCC(O)C(F)(F)C2)c1 (stereo partly drawn) [Example 2.097] | 0.5 to 20 µM
C[C@H](NCc1cc(Cl)c(O[C@H]2CCc3c(-c4ccccc4F)cccc32)cc1OCc1cncc(C#N)c1)C(=O)O [Example 2.098] | < 0.1 µM
C[C@@H](O)[C@H](NCc1cc(Cl)c(O[C@H]2CCc3c(-c4ccccc4F)cccc32)cc1OCc1cncc(C#N)c1)C(=O)O [Example 2.100] | < 0.1 µM
N#Cc1cncc(COc2cc(O[C@H]3CCc4c(-c5ccccc5F)cccc43)c(Cl)cc2CN[C@H](CO)C(=O)O)c1 [Example 2.102] | < 0.1 µM
COc1cccc(F)c1-c1cccc2c1CC[C@@H]2Oc1cc(OCc2cncc(C#N)c2)c(CN[C@@H](CO)C(=O)O)cc1Cl [Example 2.105] | 0.1 to 0.5 µM
COc1cccc(-c2cccc3c2CC[C@@H]3Oc2cc(OCc3cncc(C#N)c3)c(CN[C@H](C(=O)O)[C@@H](C)O)cc2Cl)c1F [Example 2.106] | < 0.1 µM
COc1cccc(-c2cccc3c2CC[C@@H]3Oc2cc(OCc3cncc(C#N)c3)c(CN[C@H](CO)C(=O)O)cc2Cl)c1F [Example 2.107] | < 0.1 µM
COc1cccc(F)c1-c1cccc2c1CC[C@@H]2Oc1cc(OCc2cncc(C#N)c2)c(CN2CCC(O)CC2)cc1Cl [Example 2.108] | 0.5 to 20 µM
OC1CCN(Cc2cc(Cl)c(O[C@H]3CCc4c(-c5ccccc5F)cccc43)cc2OCc2cnc(N3CCC(O)CC3)nc2)CC1 [Example 2.109] | 0.5 to 20 µM
N#Cc1cccc(COc2cc(O[C@H]3CCc4c(-c5ccccc5F)cccc43)c(Cl)cc2CN2CCC(O)CC2)c1 [Example 2.110] | 0.5 to 20 µM
OC1CCN(Cc2cc(Cl)c(O[C@H]3CCc4c(-c5ccccc5F)cccc43)cc2OCc2cnc(Cl)nc2)CC1 [Example 2.111] | 0.1 to 0.5 µM
N#Cc1cncc(-c2cc(O[C@H]3CCc4c(-c5ccccc5F)cccc43)c(Cl)cc2CN2CCC(O)CC2)c1 [Example 2.112] | 0.5 to 20 µM
N#Cc1cncc(COc2cc(O[C@H]3CCc4c(-c5ccccc5F)cccc43)c(Cl)cc2CN2CC[C@H](O)[C@H](F)C2)c1 [Example 2.113] | 0.5 to 20 µM
N#Cc1cncc(COc2cc(O[C@H]3CCc4c(-c5ccccc5F)cccc43)c(Cl)cc2CN2CC[C@H](O)[C@@H](F)C2)c1 [Example 2.114] | 0.5 to 20 µM

SMILES | IC50
N#Cc1cncc(-c2cc(O[C@H]3CCc4c(-c5ccccc5F)cccc43)c(Cl)cc2CN[C@@H](CO)C(=O)O)c1 [Example 2.115] | < 0.1 µM
OC1CCN(Cc2cc(Cl)c(O[C@H]3CCc4c(-c5ccccc5F)cccc43)cc2OCc2cccnc2)CC1 [Example 2.116] | 0.5 to 20 µM
N#Cc1cncc(COc2cc(O[C@H]3CCc4c(-c5ccccc5F)cccc43)c(Cl)cc2CN[C@@H](CCC(=O)O)C(=O)O)c1 [Example 2.117] | < 0.1 µM
N#Cc1cncc(COc2cc(O[C@H]3CCc4c(-c5ccccc5F)cccc43)c(Cl)cc2CN[C@@H](CC(N)=O)C(=O)O)c1 [Example 2.118] | < 0.1 µM
N#Cc1cncc(COc2cc(O[C@H]3CCc4c(-c5ccccc5F)cccc43)c(Cl)cc2CN2CC3(CC(O)C3)C2)c1 [Example 2.119] | 0.1 to 0.5 µM
N#Cc1cncc(COc2cc(O[C@H]3CCc4c(-c5ccccc5F)cccc43)c(Cl)cc2CN2CC(F)C2)c1 [Example 2.120] | 0.5 to 20 µM
N#Cc1cccc(-c2cc(O[C@H]3CCc4c(-c5ccccc5F)cccc43)c(Cl)cc2CN[C@@H](CO)C(=O)O)c1 [Example 2.121] | 0.1 to 0.5 µM
C[C@H](O)[C@@H](NCc1cc(Cl)c(O[C@H]2CCc3c(-c4ccccc4F)cccc32)cc1OCc1cncc(C#N)c1)C(=O)O [Example 2.122] | < 0.1 µM
CC(C)[C@H](NCc1cc(Cl)c(O[C@H]2CCc3c(-c4ccccc4F)cccc32)cc1OCc1cncc(C#N)c1)C(=O)O [Example 2.123] | 0.1 to 0.5 µM
NC(=O)COc1cc(O[C@H]2CCc3c(-c4ccccc4F)cccc32)c(Cl)cc1CN[C@@H](CO)C(=O)O [Example 2.124] | 0.5 to 20 µM
CCC(O)C(NCc1cc(Cl)c(O[C@H]2CCc3c(-c4ccccc4F)cccc32)cc1OCc1cncc(C#N)c1)C(=O)O (stereo partly drawn) [Example 2.125] | < 0.1 µM
C[C@@H](O)[C@H](NCc1cc(Cl)c(O[C@H]2CCc3c(-c4ccccc4F)cccc32)cc1-c1cncc(C#N)c1)C(=O)O [Example 2.126] | 0.1 to 0.5 µM
C[C@H](O)[C@H](NCc1cc(Cl)c(O[C@H]2CCc3c(-c4ccccc4F)cccc32)cc1OCc1cncc(C#N)c1)C(=O)O [Example 2.127] | < 0.1 µM
C[C@@H](O)[C@@H](NCc1cc(Cl)c(O[C@H]2CCc3c(-c4ccccc4F)cccc32)cc1OCc1cncc(C#N)c1)C(=O)O [Example 2.129] | < 0.1 µM
Nc1ncc(COc2cc(O[C@H]3CCc4c(-c5ccccc5F)cccc43)c(Cl)cc2CN2CCC(O)CC2)cn1 [Example 2.130] | 0.1 to 0.5 µM
COc1ncc(COc2cc(O[C@H]3CCc4c(-c5ccccc5F)cccc43)c(Cl)cc2CN2CCC(O)CC2)cn1 [Example 2.131] | 0.1 to 0.5 µM
N#Cc1cncc(COc2cc(O[C@H]3CCc4c(-c5ccccc5F)cccc43)c(Cl)cc2CN[C@H](C(=O)O)[C@H](O)c2ccccc2)c1 [Example 2.132] | 0.1 to 0.5 µM
C[C@@H](O)[C@H](NCc1cc(Cl)c(O[C@H]2CCc3c(-c4ccccc4F)cccc32)cc1OCc1cccnn1)C(=O)O [Example 2.133] | 0.1 to 0.5 µM
COC[C@H](NCc1cc(Cl)c(O[C@H]2CCc3c(-c4ccccc4F)cccc32)cc1OCc1cncc(C#N)c1)C(=O)O [Example 2.134] | < 0.1 µM

SMILES | IC50
C[C@@H](O)[C@H](NC(=O)CNCc1cc(Cl)c(O[C@H]2CCc3c(-c4ccccc4F)cccc32)cc1OCc1cncc(C#N)c1)C(=O)O [Example 2.135] | 0.1 to 0.5 µM
N#Cc1cncc(COc2cc(O[C@@H]3CCc4c(-c5ccccc5F)cccc43)c(Cl)cc2CN2CCC(O)CC2)c1 [Example 2.136] | 0.1 to 0.5 µM
C=CC(=O)NCCNCc1cc(Cl)c(O[C@H]2CCc3c(-c4ccccc4F)cccc32)cc1OCc1cncc(C#N)c1 [Example 2.137] | 0.1 to 0.5 µM
C[C@@H](O)[C@H](NCc1cc(Cl)c(O[C@@H]2CCc3c(-c4ccccc4F)cccc32)cc1OCc1cncc(C#N)c1)C(=O)O [Example 2.138] | < 0.1 µM
N#Cc1cncc(COc2cc(O[C@@H]3CCc4c(-c5ccccc5F)cccc43)c(Cl)cc2CN[C@@H](CO)C(=O)O)c1 [Example 2.139] | < 0.1 µM
COC(=O)[C@H](CO)NCc1cc(Cl)c(O[C@H]2CCc3c(-c4ccccc4F)cccc32)cc1OCc1cncc(C#N)c1 [Example 2.140] | < 0.1 µM
C[C@@H](NCc1cc(Cl)c(O[C@H]2CCc3c(-c4ccccc4F)cccc32)cc1OCc1cncc(C#N)c1)C(=O)O [Example 2.141] | < 0.1 µM
COc1cccc(-c2cccc3c2CC[C@@H]3Oc2cc(OCc3cncc(C#N)c3)c(CNCC(C)(C)O)cc2Cl)c1F [Example 2.142] | 0.1 to 0.5 µM
CC(C)(O)CNCc1cc(Cl)c(O[C@H]2CCc3c(-c4ccccc4F)cccc32)cc1OCc1cncc(C#N)c1 [Example 2.143] | 0.1 to 0.5 µM
N#Cc1cncc(COc2cc(O[C@H]3CCc4c(-c5ccccc5F)cccc43)c(Cl)cc2CNC2(C(=O)O)CC2)c1 [Example 2.144] | < 0.1 µM
N#Cc1cncc(COc2cc(O[C@H]3CCc4c(-c5ccccc5F)cccc43)c(Cl)cc2CNC2(C(=O)O)CCC2)c1 [Example 2.145] | < 0.1 µM
C[C@@H](O)[C@H](NCc1cc(Cl)c(O[C@@H]2c3cccc(-c4ccccc4F)c3C[C@H]2F)cc1OCc1cncc(C#N)c1)C(=O)O [Example 2.146] | < 0.1 µM
N#Cc1cncc(COc2cc(O[C@@H]3c4cccc(-c5ccccc5F)c4C[C@H]3F)c(Cl)cc2CN[C@@H](CO)C(=O)O)c1 [Example 2.147] | < 0.1 µM
N#Cc1cncc(COc2cc(O[C@@H]3c4cccc(-c5ccccc5F)c4C[C@H]3F)c(Cl)cc2CN2CCC(O)CC2)c1 [Example 2.148] | 0.5 to 20 µM
C[C@@H](O)[C@H](NCc1cc(Cl)c(O[C@H]2CCc3c(-c4ccccc4F)cccc32)cc1OCc1cncc(C#N)c1)C(N)=O [Example 2.149] | 0.1 to 0.5 µM
N#Cc1cncc(COc2cc(O[C@H]3CCc4c(-c5ccccc5F)cccc43)c(Cl)cc2CNCc2nc(=O)o[nH]2)c1 [Example 2.150] | 0.1 to 0.5 µM
N#Cc1cncc(COc2cc(O[C@H]3CCc4c(-c5ccccc5F)cccc43)c(Cl)cc2CNCC(=O)NO)c1 [Example 2.151] | 0.5 to 20 µM
CC(CO)(NCc1cc(Cl)c(O[C@H]2CCc3c(-c4ccccc4F)cccc32)cc1OCc1cncc(C#N)c1)C(=O)O (stereo partly drawn) [Example 2.152] | < 0.1 µM

From patent US10639284B2, “Immunomodulator compounds” (CHEMOCENTRYX, INC., priority 2016, dated 2020)
